Paper PMC7985297 (Communications Biology, 2021)
“And” between values parts separate entries of the source, which are not always exact repeats. Equal values may be shown once. “Also recorded” adds a separate entry of the source.

Key:
[1] = test system: Pin1 and cell cycle proteins in LN95 cells; assay: Western blot of Pin1 and cell cycle proteins in LN95 cells; conditions: for CyclinA2 protein level (Fig. 6a) / CyclinB1 protein level (Fig. 6a) / CyclinD1 protein level (Fig. 6a) / Pin1 protein level (Fig. 6a) / p21 protein level (Fig. 6a) / p27 protein level (Fig. 6a): relative to 0 μM = 1, replicate experiments by date
Description: Data shown are the means ± s.e.m. from 3–4 independent experiments. Statistical significance was determined by ANOVA using the Dunnett’s multiple comparisons test. *P < 0.05, **P < 0.01, ***P < 0.001.
For western blot analyses, membranes were blocked with 5% non-fat milk in phosphate-buffered saline containing 0.1% Tween-20 (PBS-T) and then incubated overnight at 4 °C with primary antibody (1:200–5000) in PBS-T containing 5% non-fat milk or 2% BSA. After incubation with the primary antibody, the membrane was washed three times with TBS-T, incubated with a horseradish peroxidase-conjugated antibody secondary antibody (1:5000–10,000) for 1–2 h at room temperature, and washed three times with PBS-T and two more times with PBS before chemiluminescence was detected with ECL Prime Reagent (GE Healthcare Life Science, Mississauga, ON). Western blot images were captured using the ChemiDoc MP Imaging System (Bio-Rad Laboratories, Hercules, CA) and quantified using ImageJ software.

LNCaP cells = assay: Senescence-associated β-galactosidase staining, LNCaP; type: cell-based, human; conditions: ATRA 10 µM, 3 days
From the text: Supplementary Figure 6. […] ( a)
Staining of senescence-associated β-galactosidase (SA β-gal) activity in cell lines treated with vehicle
Original magnification ×100.
percentage of β-gal positive cells as means ± s.e.m. from 3 independent experiments, where at least
1,000 cells were scored for each group. (c) Representative Western blot showing the indicated cell […]

LN95-D3 cells = assay: Cell cycle analysis by flow cytometry, LN95-D3 subline; type: cell-based, human; conditions: LN95-D3, absence of androgen, 48 h
LN95-D3 xenografts = assay: Growth of LN95-D3 CRPC xenografts in castrated male NSG mice; type: in vivo; conditions: for Tumor volume, individual animals (Fig. 7b): ATRA 5mg, in mm³ (unit assumed)
YFP-AR fusion protein = biological target: T1, YFP-AR fusion protein (Homo sapiens, UniProt P10275); type: cell-based
T1 construct: expressed in transfected cells; host or cells: LNCaP
Description: Scores greater than 1 indicate nuclear localization. At least 50 cells were scored for each treatment.
AR translocation assays were performed by a modified protocol from Myung et al.[9]. Approximately 2.8 × 10^5 LNCaP cells were grown on coverslips in six-well plates and transiently transfected with 2 μg of an expression vector encoding a YFP-AR fusion protein. On the following day, cells were pre-treated with the indicated compounds for 1 h and stimulated with R1881 (1 nM) or a vehicle containing ethanol for 3 h. After incubating with compounds, cells were fixed with 4% paraformaldehyde, washed twice with PBS, and then counterstained with DAPI. Slides were examined on an Axiovert 200 Fluorescence Microscope (Zeiss, Oberkochen, Germany). The ratio of the YFP signal in the nucleus relative to the cytoplasm was quantified with ImageJ software. For each image, background fluorescence was measured and subtracted from experimental values. A total of at least 50 cells from nine images containing six or more cells per field were quantified to determine the nuclear to cytoplasmic YFP ratio for each treatment group.

full-length AR = biological target: T2, full-length AR (Homo sapiens, UniProt P10275, T878A); assay: PSA(6.1 kb)-luciferase AR-driven reporter assay in LNCaP cells; type: cell-based; conditions: LNCaP, R1881 1 nM, 24 h; read-out: IC50, androgen-induced PSA(6.1 kb)-luciferase activity
T2 construct: Transcriptional activity of full-length AR was assessed in LNCaP cells; endogenous in cells; host or cells: LNCaP
T2 sequence (P10275 1-920 T878A): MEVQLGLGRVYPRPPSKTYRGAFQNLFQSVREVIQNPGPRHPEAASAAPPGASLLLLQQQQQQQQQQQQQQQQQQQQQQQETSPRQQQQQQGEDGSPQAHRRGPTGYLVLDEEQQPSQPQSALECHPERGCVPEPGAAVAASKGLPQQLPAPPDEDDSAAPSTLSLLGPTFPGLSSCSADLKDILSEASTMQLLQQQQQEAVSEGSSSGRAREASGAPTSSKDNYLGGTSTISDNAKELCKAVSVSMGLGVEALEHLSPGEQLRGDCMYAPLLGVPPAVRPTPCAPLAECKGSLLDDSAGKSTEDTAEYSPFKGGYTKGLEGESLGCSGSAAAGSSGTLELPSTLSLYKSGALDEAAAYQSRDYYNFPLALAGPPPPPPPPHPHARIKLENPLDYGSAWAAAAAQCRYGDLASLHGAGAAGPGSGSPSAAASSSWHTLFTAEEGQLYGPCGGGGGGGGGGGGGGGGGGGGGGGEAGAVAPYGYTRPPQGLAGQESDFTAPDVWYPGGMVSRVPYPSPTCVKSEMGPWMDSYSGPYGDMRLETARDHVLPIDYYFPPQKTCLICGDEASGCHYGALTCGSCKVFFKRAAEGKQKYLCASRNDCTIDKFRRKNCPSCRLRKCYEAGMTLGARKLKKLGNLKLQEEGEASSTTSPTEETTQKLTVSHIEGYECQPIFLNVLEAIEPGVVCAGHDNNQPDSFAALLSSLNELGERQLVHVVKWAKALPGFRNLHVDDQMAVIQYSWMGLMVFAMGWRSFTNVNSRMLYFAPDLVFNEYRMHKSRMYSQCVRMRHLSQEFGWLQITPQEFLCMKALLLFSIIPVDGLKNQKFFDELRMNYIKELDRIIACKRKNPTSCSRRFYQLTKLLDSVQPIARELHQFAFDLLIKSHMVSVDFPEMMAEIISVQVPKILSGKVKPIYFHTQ

T1 sequence (P10275 whole entry, the tested form may be a part): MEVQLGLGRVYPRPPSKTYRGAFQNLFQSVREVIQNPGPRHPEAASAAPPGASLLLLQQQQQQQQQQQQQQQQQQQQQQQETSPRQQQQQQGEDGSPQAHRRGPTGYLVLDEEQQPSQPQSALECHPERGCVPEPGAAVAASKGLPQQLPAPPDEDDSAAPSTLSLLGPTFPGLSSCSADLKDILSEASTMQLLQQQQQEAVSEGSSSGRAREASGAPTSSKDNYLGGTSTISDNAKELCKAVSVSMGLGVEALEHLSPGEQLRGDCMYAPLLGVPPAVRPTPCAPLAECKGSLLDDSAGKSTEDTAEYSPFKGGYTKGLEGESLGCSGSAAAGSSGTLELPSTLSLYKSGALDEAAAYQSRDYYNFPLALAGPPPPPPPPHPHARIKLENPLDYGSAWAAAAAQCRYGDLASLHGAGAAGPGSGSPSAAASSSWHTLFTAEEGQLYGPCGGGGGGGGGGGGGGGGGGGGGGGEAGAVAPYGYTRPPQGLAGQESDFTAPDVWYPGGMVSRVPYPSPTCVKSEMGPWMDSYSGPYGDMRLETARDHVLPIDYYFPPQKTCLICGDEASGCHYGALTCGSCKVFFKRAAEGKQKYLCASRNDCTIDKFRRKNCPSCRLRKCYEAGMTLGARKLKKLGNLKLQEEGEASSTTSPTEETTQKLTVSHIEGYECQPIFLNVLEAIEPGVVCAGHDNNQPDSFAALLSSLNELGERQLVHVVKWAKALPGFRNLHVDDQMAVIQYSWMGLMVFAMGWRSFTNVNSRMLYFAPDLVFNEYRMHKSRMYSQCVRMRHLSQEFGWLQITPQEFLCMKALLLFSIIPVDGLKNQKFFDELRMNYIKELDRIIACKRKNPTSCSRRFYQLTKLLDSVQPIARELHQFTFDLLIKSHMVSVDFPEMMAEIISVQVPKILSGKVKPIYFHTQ

Compound: CC1=C(/C=C/C(C)=C/C=C/C(C)=C/C(=O)O)C(C)(C)CCC1 [ATRA, all-trans retinoic acid]
- CyclinA2 protein level (Fig. 6a) ([1]; 1 μM): 1 and 0.69 and 0.64
- CyclinB1 protein level (Fig. 6a) ([1]; 1 μM): 1.17 and 0.87 and 1.22
- CyclinD1 protein level (Fig. 6a) ([1]; 1 μM): 0.71 and 0.24 and 0.7 and 0.33
- Pin1 protein level (Fig. 6a) ([1]; 1 μM): 0.8 and 0.7 and 0.86 and 0.56
- p21 protein level (Fig. 6a) ([1]; 1 μM): 1.19 and 0.73 and 1.3
- p27 protein level (Fig. 6a) ([1]; 1 μM): 0.93 and 0.87 and 1.2
- CyclinA2 protein level (Fig. 6a) ([1]; 5 μM): 0.66 and 0.01 and 1.22
- CyclinB1 protein level (Fig. 6a) ([1]; 5 μM): 0.9 and 0.62 and 1.39
- CyclinD1 protein level (Fig. 6a) ([1]; 5 μM): 0.34 and 0.13 and 0.42 and 0.23
- Pin1 protein level (Fig. 6a) ([1]; 5 μM): 0.63 and 0.26 and 0.56 and 0.35
- p21 protein level (Fig. 6a) ([1]; 5 μM): 0.81 and 0.2 and 1.37
- p27 protein level (Fig. 6a) ([1]; 5 μM): 1.19 and 1.12 and 1.3
- CyclinA2 protein level (Fig. 6a) ([1]; 10 μM): 0.13 and 0 and 0.23
- CyclinB1 protein level (Fig. 6a) ([1]; 10 μM): 0.63 and 0.58 and 0.55
- CyclinD1 protein level (Fig. 6a) ([1]; 10 μM): 0.01 and 0.35 and 0.23 and 0.05
- Pin1 protein level (Fig. 6a) ([1]; 10 μM): 0.56 and 0.13 and 0.39 and 0.14
- p21 protein level (Fig. 6a) ([1]; 10 μM): 1.42 and 0.19 and 0.58
- p27 protein level (Fig. 6a) ([1]; 10 μM): 1.39 and 2.2 and 1.28
- effect on cellular Pin1 protein levels ([1]; LN95, 0–10 µM): dose-dependent decrease in Pin1 levels
- effect on expression of cyclins D1, A2, B1 ([1]; LN95, ATRA 0–10 µM): significantly decreased the expression of cyclin D1 and cyclin A2; also recorded: not cyclin B1
- effect on levels of CDK inhibitors p27Kip1 and p21Cip1 ([1]; LN95, ATRA 0–10 µM): selectively increased the levels of cyclin-dependent kinase (CDK) inhibitor p27^Kip1 but not p21^Cip1
- effect on percentage of SA β-gal-positive cells (LNCaP cells): significantly increased the percentage of SA β-gal-positive cells for LNCaP and LN95 cells
- effect on cell cycle distribution (LN95-D3 cells): reduced the S phase and increased the G1 population
- tumor growth after 21 days of treatment (LN95-D3 xenografts; castrated mice, ATRA 5 mg 21-day release pellet, EPI-7170 30 mg/kg daily oral, relative to vehicle/placebo-control): significantly reduced
- growth of LN95-D3 tumors, pilot study (LN95-D3 xenografts; mice bearing ATRA slow-release pellets compared to placebo): markedly reduced
- Tumor volume, individual animals (Fig. 7b) (LN95-D3 xenografts; treatment duration 0 days): 24.32 and 14.61 and 31.83 and 56.34 and 20.55 and 20.28 and 50.07 and 32.48
- Tumor volume, individual animals (Fig. 7b) (LN95-D3 xenografts; treatment duration 3 days): 55.84 and 24.48 and 48.26 and 128.17 and 47.08 and 28.39 and 67.63 and 51.78
- Tumor volume, individual animals (Fig. 7b) (LN95-D3 xenografts; treatment duration 6 days): 83.34 and 43.04 and 71.44 and 190.56 and 74.31 and 35.31 and 102.14 and 93.49
- Tumor volume, individual animals (Fig. 7b) (LN95-D3 xenografts; treatment duration 9 days): 133.91 and 53.07 and 85.22 and 295.56 and 122.11 and 47.93 and 142.91 and 132.75
- Tumor volume, individual animals (Fig. 7b) (LN95-D3 xenografts; treatment duration 12 days): 206.68 and 57.46 and 89.96 and 435.8 and 154.08 and 63.14 and 159.59 and 153.66
- Tumor volume, individual animals (Fig. 7b) (LN95-D3 xenografts; treatment duration 15 days): 291.35 and 84.16 and 118.21 and 658.17 and 325.4 and 102.18 and 255.62 and 266.01
- Tumor volume, individual animals (Fig. 7b) (LN95-D3 xenografts; treatment duration 18 days): 379.83 and 117.24 and 202.18 and 871.57 and 503.37 and 170.47 and 377.34 and 331.83
- Tumor volume, individual animals (Fig. 7b) (LN95-D3 xenografts; treatment duration 21 days): 564.91 and 139.55 and 232.06 and 1102.95 and 649.08 and 196.67 and 421.71 and 345.48

Compound: O=C1C=CC(=O)c2c(O)cccc21 [juglone]
- YFP-AR localization, ratio of YFP intensity nucleus to cytosol (Fig. 2h), EtOH (YFP-AR fusion protein): 0.76 and 0.781 and 0.791
- YFP-AR localization, ratio of YFP intensity nucleus to cytosol (Fig. 2h), R1881 (YFP-AR fusion protein): 1.983 and 2.303 and 2.076
- IC50 (full-length AR): 10.9 µM
